Source: patent US20150307461A1, “ANTIVIRAL COMPOUNDS” (priority 2012, published 2015)

Legend:
Test in all cases: microbe, parasite or virus in culture
[1] = tested on: Pseudotyped HCV GT1b particles (HCVpp); format: cell-based, HCV GT1b Con1 strain; conditions: Hepatitis C virus, 72 h, read-out: HCVpp GT-1b (EC50, μM)
[2] = tested on: pseudotyped VSV G particles (VSVpp); format: cell-based; conditions: Vesicular stomatitis virus, 72 h, read-out: VSVpp (EC50, μM)
[3] = tested on: Pseudotyped HCV GT1a particles (HCVpp); format: cell-based, HCV GT1a H77 strain; conditions: Hepatitis C virus, 72 h, read-out: HCVpp GT-1a (EC50, μM)

| SMILES | EC50 [1] | EC50 [2] | EC50 [3] |
| --- | --- | --- | --- |
| Nc1nc(Nc2cc(F)cc(C(F)(F)F)c2)n[nH]1 [Compound I-57, N^3-(3-Fluoro-5-trifluoromethyl-phenyl)-1H-[1,2,4]triazole-3,5-diamine] | 0.624 µM | 100 µM | 0.146 µM |
| CC(C)c1cccc(Nc2n[nH]c(N)n2)c1 [Compound I-56, N^3-(3-Isopropyl-phenyl)-1H-[1,2,4]triazole-3,5-diamine] | 19.6 µM | 100 µM | 8.36 µM |
| Cc1c(Cl)cc(Nc2n[nH]c(N)n2)cc1Cl [Compound I-38, N*3*-(3,5-Dichloro-4-methyl-phenyl)-1H-[1,2,4]triazole-3,5-diamine] | 0.75 µM | 79.4 µM | 0.023 µM |
| Nc1nc(Nc2ccc(C#Cc3ccccc3)c(Cl)c2)n[nH]1 [Compound I-14, N*3*-(3-Chloro-4-phenylethynyl-phenyl)-1H-[1,2,4]triazole-3,5-diamine] | 32.7 µM | 100 µM | 5.34 µM |
| Nc1nc(Nc2ccc(C(=O)N3CCOCC3)cc2)n[nH]1 [Compound I-23, [4-(5-Amino-1H-[1,2,4]triazol-3-ylamino)-phenyl]-morpholin-4-yl-methanone] | 100 µM | 100 µM | 100 µM |
| Nc1nc(Nc2ccc(S(=O)(=O)C(F)(F)F)cc2)n[nH]1 [Compound I-17, N*3*-(4-Trifluoromethanesulfonyl-phenyl)-1H-[1,2,4]triazole-3,5-diamine] | 14.2 µM | 100 µM | 12.6 µM |
| N#Cc1ccc(Nc2n[nH]c(N)n2)cc1C1CC1 [Compound I-35, 4-(5-Amino-1H-1,2,4-triazol-3-ylamino)-2-cyclopropylbenzonitrile] | 1.73 µM | 62.8 µM | 0.34 µM |
| CC(C)(C)c1cccc(Nc2n[nH]c(N)n2)c1 [Compound I-6, N^3-(3-tert-Butyl-phenyl)-1H-[1,2,4]triazole-3,5-diamine] | 1.59 µM | 100 µM | 0.948 µM |
| Nc1nc(Nc2cc(Cl)c(I)c(Cl)c2)n[nH]1 [Compound I-3, N^3-(3,5-Dichloro-4-iodo-phenyl)-1H-[1,2,4]triazole-3,5-diamine] | 0.386 µM | 32.7 µM | 0.012 µM |
| CNS(=O)(=O)c1ccc(Nc2n[nH]c(N)n2)cc1 [Compound I-22, 4-(5-Amino-1H-[1,2,4]triazol-3-ylamino)-N-methyl-benzenesulfonamide] | 100 µM | 100 µM | 100 µM |
| CN(C)C(=O)c1ccc(Nc2n[nH]c(N)n2)cc1 [Compound I-24, 4-(5-Amino-1H-[1,2,4]triazol-3-ylamino)-N,N-dimethyl-benzamide] | 100 µM | 100 µM | 100 µM |
| N#Cc1cc(Cl)cc(Nc2n[nH]c(N)n2)c1 [Compound I-48, 3-(5-Amino-1H-[1,2,4]triazol-3-ylamino)-5-chloro-benzonitrile] | 5.65 µM | 100 µM | 0.558 µM |
| C#Cc1ccc(Nc2n[nH]c(N)n2)cc1Cl [Compound I-9, N*3*-(3-Chloro-4-ethynyl-phenyl)-1H-[1,2,4]triazole-3,5-diamine] | 3.08 µM | 45.5 µM | 0.161 µM |
